According to US10202389B2, “Pyrazolopyrimidinyl inhibitors of ubiquitin-activating enzyme” (Millennium Pharmaceuticals, Inc., priority 2012, dated 2019):

Experiments:
mouse UAE = mouse UAE (Mus musculus (Mouse), UniProt Q02053); assay: Ubiquitin Activating Enzyme (UAE) HTRF Assay; settings: read-out: % inhibition @0.111 μM
Description: (§1) After incubation for 120 minutes, quantification of the FRET is performed on the Pherostar (BMG).
(§2) For compounds whose values are marked with an asterisk (*), mouse UAE was used. For all other compounds, human UAE was used.

recombinant human UAE = recombinant human UAE (Homo sapiens (Human), UniProt P22314); assay: Ubiquitin Activating Enzyme (UAE) HTRF Assay; settings: read-out: % inhibition @0.111 μM
recombinant human UAE, sequence (P22314 whole entry): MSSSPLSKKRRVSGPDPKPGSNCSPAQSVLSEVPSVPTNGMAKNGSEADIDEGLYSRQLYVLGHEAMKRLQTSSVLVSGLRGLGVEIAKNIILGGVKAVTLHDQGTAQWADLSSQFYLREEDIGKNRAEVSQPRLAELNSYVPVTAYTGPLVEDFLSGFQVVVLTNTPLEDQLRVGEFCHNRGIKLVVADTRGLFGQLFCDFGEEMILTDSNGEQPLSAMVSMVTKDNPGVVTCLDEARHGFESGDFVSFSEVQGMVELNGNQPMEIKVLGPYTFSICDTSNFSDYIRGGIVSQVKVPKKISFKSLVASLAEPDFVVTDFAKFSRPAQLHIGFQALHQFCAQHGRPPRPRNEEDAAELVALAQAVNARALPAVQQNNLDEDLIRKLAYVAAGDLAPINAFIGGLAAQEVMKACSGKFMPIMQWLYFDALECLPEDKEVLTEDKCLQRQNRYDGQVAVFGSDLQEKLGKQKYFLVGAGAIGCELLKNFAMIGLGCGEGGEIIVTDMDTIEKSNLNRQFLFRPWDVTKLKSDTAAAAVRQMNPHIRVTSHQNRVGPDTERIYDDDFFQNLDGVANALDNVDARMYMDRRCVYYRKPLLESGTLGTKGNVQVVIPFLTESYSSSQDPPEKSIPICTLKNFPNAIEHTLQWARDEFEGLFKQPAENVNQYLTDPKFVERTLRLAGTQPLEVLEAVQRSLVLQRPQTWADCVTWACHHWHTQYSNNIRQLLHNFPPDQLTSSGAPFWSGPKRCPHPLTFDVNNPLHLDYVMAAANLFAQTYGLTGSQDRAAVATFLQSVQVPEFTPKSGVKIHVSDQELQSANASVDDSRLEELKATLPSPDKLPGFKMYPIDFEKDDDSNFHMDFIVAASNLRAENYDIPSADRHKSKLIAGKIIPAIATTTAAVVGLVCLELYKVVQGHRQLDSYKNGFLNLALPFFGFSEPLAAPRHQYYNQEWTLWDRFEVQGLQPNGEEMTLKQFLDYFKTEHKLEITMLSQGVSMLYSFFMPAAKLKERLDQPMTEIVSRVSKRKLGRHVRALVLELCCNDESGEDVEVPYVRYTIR
Description: as §1, §2

mouse UAE, sequence (Q02053 whole entry): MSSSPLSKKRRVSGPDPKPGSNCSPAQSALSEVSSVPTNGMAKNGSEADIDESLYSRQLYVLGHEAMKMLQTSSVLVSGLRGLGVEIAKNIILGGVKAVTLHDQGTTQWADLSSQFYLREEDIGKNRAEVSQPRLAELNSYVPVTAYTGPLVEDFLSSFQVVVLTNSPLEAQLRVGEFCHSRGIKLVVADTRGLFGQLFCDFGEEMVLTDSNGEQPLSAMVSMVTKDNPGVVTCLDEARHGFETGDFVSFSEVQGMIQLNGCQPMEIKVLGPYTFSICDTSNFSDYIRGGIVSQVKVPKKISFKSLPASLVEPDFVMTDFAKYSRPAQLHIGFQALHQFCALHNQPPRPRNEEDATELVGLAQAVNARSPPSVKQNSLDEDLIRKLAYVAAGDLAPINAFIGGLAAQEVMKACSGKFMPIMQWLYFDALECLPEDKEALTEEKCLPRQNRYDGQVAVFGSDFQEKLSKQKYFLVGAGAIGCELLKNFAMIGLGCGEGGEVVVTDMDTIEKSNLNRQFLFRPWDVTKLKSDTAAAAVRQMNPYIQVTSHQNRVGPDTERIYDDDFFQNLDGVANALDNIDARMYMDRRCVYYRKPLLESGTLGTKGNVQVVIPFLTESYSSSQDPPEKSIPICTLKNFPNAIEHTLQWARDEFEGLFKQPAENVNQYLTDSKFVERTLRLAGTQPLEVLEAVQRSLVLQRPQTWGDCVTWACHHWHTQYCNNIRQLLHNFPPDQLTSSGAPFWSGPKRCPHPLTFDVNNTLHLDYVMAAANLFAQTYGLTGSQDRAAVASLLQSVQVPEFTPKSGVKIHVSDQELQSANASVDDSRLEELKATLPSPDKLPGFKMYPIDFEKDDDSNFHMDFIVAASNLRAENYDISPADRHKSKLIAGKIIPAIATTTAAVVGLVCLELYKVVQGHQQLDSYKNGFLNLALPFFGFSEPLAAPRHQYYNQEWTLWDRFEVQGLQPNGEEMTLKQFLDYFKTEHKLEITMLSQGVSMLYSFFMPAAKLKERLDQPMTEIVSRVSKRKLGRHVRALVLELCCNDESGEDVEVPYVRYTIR

NS(=O)(=O)OC[C@H]1C[C@@H](Nc2cc(Cl)nc3cc(-c4ccccn4)nn23)[C@H](O)[C@@H]1O (relative stereo) [Compound I-011, (rac)-((1R,2R,3S,4R)-4-(5-chloro-2-(pyridin-2-yl)pyrazolo[1,5-a]pyrimidin-7-ylamino)-2,3-dihydroxycyclopentyl)methyl rel-sulfamate]
inhibition at 0.111 µM (mouse UAE): 49%

NS(=O)(=O)OC[C@H]1C[C@@H](Nc2ccnc3cc(-c4cccc(Cl)c4)nn23)[C@H](O)[C@@H]1O (relative stereo) [Compound I-005, (rac)-((1R,2R,3S,4R)-4-((2-(3-Chlorophenyl)pyrazolo[1,5-a]pyrimidin-7-yl)amino)-2,3-dihydroxycyclopentyl)methyl rel-sulfamate]
inhibition at 0.111 µM (mouse UAE): 100%

NS(=O)(=O)OC[C@H]1C[C@@H](Nc2ccnc3cc(-c4ccccc4)nn23)[C@H](O)[C@@H]1O (relative stereo) [Compound I-001, (rac)-((1R,2R,3S,4R)-2,3-dihydroxy-4-(2-phenylpyrazolo[1,5-a]pyrimidin-7-ylamino)cyclopentyl)methyl rel-sulfamate]
inhibition at 0.111 µM (mouse UAE): 72%

NS(=O)(=O)OC[C@H]1C[C@@H](Nc2ccnc3cc(-c4ccccn4)nn23)[C@H](O)[C@@H]1O (relative stereo) [Compound I-012, (rac)-[(1R,2R,3S,4R)-2,3-dihydroxy-4-{[2-(pyridin-2-yl)pyrazolo[1,5-a]pyrimidin-7-yl]amino}cyclopentyl]methyl rel-sulfamate]
inhibition at 0.111 µM (mouse UAE): 61%

COc1ccc(-c2cc3nc(Cl)cc(N[C@@H]4C[C@H](COS(N)(=O)=O)[C@@H](O)[C@H]4O)n3n2)cc1 (relative stereo) [Compound I-014, (rac)-[(1R,2R,3S,4R)-4-{[5-chloro-2-(4-methoxyphenyl)pyrazolo[1,5-a]pyrimidin-7-yl]amino}-2,3-dihydroxycyclopentyl]methyl rel-sulfamate]
inhibition at 0.111 µM (recombinant human UAE): 30%

NS(=O)(=O)OC[C@H]1C[C@@H](Nc2ccnc3cc(-c4cc5ccc(Cl)cc5s4)nn23)[C@H](O)[C@@H]1O (relative stereo) [Compound I-088, (rac)-((1R,2R,3S,4R)-4-(2-(6-chlorobenzo[b]thiophen-2-yl)pyrazolo[1,5-a]pyrimidin-7-ylamino)-2,3-dihydroxycyclopentyl)methyl rel-sulfamate]
inhibition at 0.111 µM (recombinant human UAE): 97%

NS(=O)(=O)OC[C@H]1C[C@@H](Nc2ccnc3cc(-c4ccc(OC(F)F)c5ccccc45)nn23)[C@H](O)[C@@H]1O [Compound I-112, (s.e.)-((1R,2R,3S,4R)-4-(2-(4-(difluoromethoxy)naphthalen-1-yl)pyrazolo[1,5-a]pyrimidin-7-ylamino)-2,3-dihydroxycyclopentyl)methyl sulfamate]
inhibition at 0.111 µM (recombinant human UAE): 100%

NS(=O)(=O)OC[C@H]1C[C@@H](Nc2ccnc3cc(-c4cnc(-c5ccccc5)o4)nn23)[C@H](O)[C@@H]1O (relative stereo) [Compound I-067, (rac)-[(1R,2R,3S,4R)-2,3-dihydroxy-4-{[2-(2-phenyl-1,3-oxazol-5-yl)pyrazolo[1,5-a]pyrimidin-7-yl]amino}cyclopentyl]methyl rel-sulfamate]
inhibition at 0.111 µM (recombinant human UAE): 100%

NS(=O)(=O)OC[C@H]1C[C@@H](Nc2ccnc3cc(-c4csc5cc(Cl)ccc45)nn23)[C@H](O)[C@@H]1O (relative stereo) [Compound I-091, (rac)-((1R,2R,3S,4R)-4-(2-(6-chlorobenzo[b]thiophen-3-yl)pyrazolo[1,5-a]pyrimidin-7-ylamino)-2,3-dihydroxycyclopentyl)methyl rel-sulfamate]
inhibition at 0.111 µM (mouse UAE): 100%

NS(=O)(=O)OC[C@H]1C[C@@H](Nc2ccnc3cc(-c4cccc5c4oc4ccccc45)nn23)[C@H](O)[C@@H]1O [Compound I-103, (s.e.)-((1R,2R,3S,4R)-4-(2-(dibenzo[b,d]furan-4-yl)pyrazolo[1,5-a]pyrimidin-7-ylamino)-2,3-dihydroxycyclopentyl)methyl sulfamate]
inhibition at 0.111 µM (recombinant human UAE): 100%

NS(=O)(=O)OC[C@H]1C[C@@H](Nc2ccnc3cc(-c4cccc5ccccc45)nn23)[C@H](O)[C@@H]1O (relative stereo) [Compound I-002, (rac)-((1R,2R,3S,4R)-2,3-dihydroxy-4-{[2-(1-naphthyl)pyrazolo[1,5-a]pyrimidin-7-yl]amino}cyclopentyl)methyl rel-sulfamate]
inhibition at 0.111 µM (mouse UAE): 100%

NS(=O)(=O)OC[C@H]1C[C@@H](Nc2ccnc3cc(-c4c[nH]c5cc(Cl)ccc45)nn23)[C@H](O)[C@@H]1O (relative stereo) [Compound I-055, (rac)-[(1R,2R,3S,4R)-4-{[2-(6-chloro-1H-indol-3-yl)pyrazolo[1,5-a]pyrimidin-7-yl]amino}-2,3-dihydroxycyclopentyl]methyl rel-sulfamate]
inhibition at 0.111 µM (recombinant human UAE): 100%

COc1ccc(-c2cc3nccc(N[C@@H]4C[C@H](COS(N)(=O)=O)[C@@H](O)[C@H]4O)n3n2)c2ccccc12 [Compound I-106, (s.e.)-((1R,2R,3S,4R)-2,3-dihydroxy-4-(2-(4-methoxynaphthalen-1-yl)pyrazolo[1,5-a]pyrimidin-7-ylamino)cyclopentyl)methyl sulfamate]
inhibition at 0.111 µM (recombinant human UAE): 100%

NS(=O)(=O)OC[C@H]1C[C@@H](Nc2cc(Cl)nc3cc(-c4cccc5ccccc45)nn23)[C@H](O)[C@@H]1O (relative stereo) [Compound I-009, (rac)-((1R,2R,3S,4R)-4-{[5-chloro-2-(1-naphthyl)pyrazolo[1,5-a]pyrimidin-7-yl]amino}-2,3-dihydroxycyclopentyl)methyl rel-sulfamate]
inhibition at 0.111 µM (recombinant human UAE): 42%

NS(=O)(=O)OC[C@H]1C[C@@H](Nc2ccnc3cc(-c4cccc(N5CCCC5=O)c4)nn23)[C@H](O)[C@@H]1O (relative stereo) [Compound I-087, (rac)-((1R,2R,3S,4R)-2,3-dihydroxy-4-(2-(3-(2-oxopyrrolidin-1-yl)phenyl)pyrazolo[1,5-a]pyrimidin-7-ylamino)cyclopentyl)methyl rel-sulfamate]
inhibition at 0.111 µM (recombinant human UAE): 100%

NS(=O)(=O)OC[C@H]1C[C@@H](Nc2ccnc3cc(-c4cccc5ccccc45)nn23)[C@H](O)[C@@H]1O [Compound I-098, (s.e.)-((1R,2R,3S,4R)-2,3-dihydroxy-4-{[2-(1-naphthyl)pyrazolo[1,5-a]pyrimidin-7-yl]amino}cyclopentyl)methyl sulfamate]
inhibition at 0.111 µM (recombinant human UAE): 100%

NS(=O)(=O)OC[C@H]1C[C@@H](Nc2ccnc3cc(-c4csc5ccc(F)cc45)nn23)[C@H](O)[C@@H]1O (relative stereo) [Compound I-081, (rac)-((1R,2R,3S,4R)-4-(2-(5-fluorobenzo[b]thiophen-3-yl)pyrazolo[1,5-a]pyrimidin-7-ylamino)-2,3-dihydroxycyclopentyl)methyl rel-sulfamate]
inhibition at 0.111 µM (recombinant human UAE): 100%

NS(=O)(=O)OC[C@H]1C[C@@H](Nc2ccnc3cc(-c4ccc5cccnc5c4)nn23)[C@H](O)[C@@H]1O (relative stereo) [Compound I-043, (rac)-((1R,2R,3S,4R)-2,3-dihydroxy-4-(2-(quinolin-7-yl)pyrazolo[1,5-a]pyrimidin-7-ylamino)cyclopentyl)methyl rel-sulfamate]
inhibition at 0.111 µM (recombinant human UAE): 100%

CCc1ccc2sc(-c3cc4nccc(N[C@@H]5C[C@H](COS(N)(=O)=O)[C@@H](O)[C@H]5O)n4n3)cc2c1 (relative stereo) [Compound I-095, (rac)-((1R,2R,3S,4R)-4-(2-(5-ethylbenzo[b]thiophen-2-yl)pyrazolo[1,5-a]pyrimidin-7-ylamino)-2,3-dihydroxycyclopentyl)methyl rel-sulfamate]
inhibition at 0.111 µM (recombinant human UAE): 70%

NS(=O)(=O)OC[C@H]1C[C@@H](Nc2ccnc3cc(-c4c(Cl)cc(Cl)c5ccccc45)nn23)[C@H](O)[C@@H]1O [Compound I-117, (s.e.)-((1R,2R,3S,4R)-4-(2-(2,4-dichloronaphthalen-1-yl)pyrazolo[1,5-a]pyrimidin-7-ylamino)-2,3-dihydroxycyclopentyl)methyl sulfamate]
inhibition at 0.111 µM (recombinant human UAE): 92%
